Ten molecules from patent US9169254B2, “Spiroimidazolone derivative” (Chugai Seiyaku Kabushiki Kaisha, priority 2009, dated 2015) can be followed below.

The target of the test is T1, human PTH1 receptor (Homo sapiens, UniProt Q03431).
T1 sequence (Q03431 27-593): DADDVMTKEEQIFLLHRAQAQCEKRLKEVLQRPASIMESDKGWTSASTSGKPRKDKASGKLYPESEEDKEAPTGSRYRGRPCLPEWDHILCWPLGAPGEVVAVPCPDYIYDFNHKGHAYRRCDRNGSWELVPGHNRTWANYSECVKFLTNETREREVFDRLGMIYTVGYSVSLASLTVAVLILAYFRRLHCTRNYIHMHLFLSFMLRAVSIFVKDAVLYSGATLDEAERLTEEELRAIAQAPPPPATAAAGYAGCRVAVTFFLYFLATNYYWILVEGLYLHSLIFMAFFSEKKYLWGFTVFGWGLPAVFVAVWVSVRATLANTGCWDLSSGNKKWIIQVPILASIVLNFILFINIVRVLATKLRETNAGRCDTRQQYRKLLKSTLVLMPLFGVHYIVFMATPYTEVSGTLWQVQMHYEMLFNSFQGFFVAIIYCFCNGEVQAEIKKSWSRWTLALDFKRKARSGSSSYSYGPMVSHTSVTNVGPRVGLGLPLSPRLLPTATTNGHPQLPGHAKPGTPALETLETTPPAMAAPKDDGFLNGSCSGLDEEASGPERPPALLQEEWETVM
The test is described as follows: In vitro cAMP signal activity in HKRK-B7 cells (LLC-PK1 cells overexpressing the human PTH1 receptor). The test is classed as cell-based. The note with it: HKRK-B7 cells; compound at 1×10^−3 M; cAMP produced as percentage of that produced by hPTH(1-34) at 100 nM.

As for `CCCCC1CCC(C2=NC3(CCN(S(=O)(=O)/C=C/c4c(C)cc(N(CCOCCOC)C(C)=O)cc4C)CC3)C(=O)N2)CC1` (stereo not shown) [Compound 561, N-(4-{(E)-2-[2-(4-butyl-cyclohexyl)-4-oxo-1,3,8-triaza-spiro[4.5]dec-1-ene-8-sulfonyl]-vinyl}-3,5-dimethyl-phenyl)-N-[2-(2-methoxy-ethoxy)-ethyl]-acetamide], the “cAMP production activity (%)” value came out at 52%. The same measure for `O=C1NC(C2CCCCC2)=NC12CCN(S(=O)(=O)c1ccc3c(c1)OCCO3)CC2` [Compound 60, 2-cyclohexyl-8-(2,3-dihydro-benzo[1,4]dioxine-6-sulfonyl)-1,3,8-triaza-spiro[4.5]dec-1-en-4-one]: 34%; for `Cc1cc(C(=O)N(C)C)ccc1CCS(=O)(=O)N1CCC2(CC1)N=C(c1ccc(F)cc1Cl)NC2=O` [Compound 90, 4-{2-[2-(2-chloro-4-fluoro-phenyl)-4-oxo-1,3,8-triaza-spiro[4.5]dec-1-ene-8-sulfonyl]-ethyl}-3,N,N-trimethyl-benzamide]: 88%. The same measure for `CC(=O)N(CC#N)c1ccc(/C=C/S(=O)(=O)N2CCC3(CC2)N=C(c2cccc(OC(F)(F)F)c2)NC3=O)c(C)c1` [Compound 612, N-cyanomethyl-N-(3-methyl-4-{(E)-2-[4-oxo-2-(3-trifluoromethoxy-phenyl)-1,3,8-triaza-spiro[4.5]dec-1-ene-8-sulfonyl]-vinyl}-phenyl)-acetamide]: 62%.

As for `Cc1cc(N(CC(F)(F)F)C(N)=O)ccc1CCS(=O)(=O)N1CCC2(CC1)N=C(c1cccc(OC(F)(F)F)c1)NC2=O` [Compound 877, 1-(3-methyl-4-{2-[4-oxo-2-(3-trifluoromethoxy-phenyl)-1,3,8-triaza-spiro[4.5]dec-1-ene-8-sulfonyl]-ethyl}-phenyl)-1-(2,2,2-trifluoro-ethyl)-urea], the “cAMP production activity (%)” value stood at 35%.

Take `Cc1cc(C(=O)N2CCC(O)(CF)CC2)cc(C)c1CCS(=O)(=O)N1CCC2(CC1)N=C(C1CCC(CCC(F)(F)F)CC1)NC2=O` (stereo not shown) [Compound 1381, 8-{2-[4-(4-fluoromethyl-4-hydroxy-piperidine-1-carbonyl)-2,6-dimethyl-phenyl]-ethanesulfonyl}-2-[4-(3,3,3-trifluoro-propyl)-cyclohexyl]-1,3,8-triaza-spiro[4.5]dec-1-en-4-one]: the “cAMP production activity (%)” value turned out to be 102%. As to `Cc1cc(N2C(=O)NC(C)C2=O)cc(C)c1CCS(=O)(=O)N1CCC2(CC1)N=C(C1CCC(C)CC1)NC2=O` (stereo not shown) [Compound 767, 3-(3,5-dimethyl-4-{2-[2-(4-methyl-cyclohexyl)-4-oxo-1,3,8-triaza-spiro[4.5]dec-1-ene-8-sulfonyl]-ethyl}-phenyl)-5-methyl-imidazolidine-2,4-dione], the “cAMP production activity (%)” value is on record as 83%. For `CNC(=O)c1ccccc1CCS(=O)(=O)N1CCC2(CC1)N=C(C1CCCCC1)NC2=O` [Compound 421, 2-[2-(2-Cyclohexyl-4-oxo-1,3,8-triaza-spiro[4.5]dec-1-ene-8-sulfonyl)-ethyl]-N-methyl-benzamide], the “cAMP production activity (%)” value was found to be 68%.

Take `Cc1cc(C(=O)N2CCC(O)CC2)cc(C)c1/C=C/[S@TB4](=O)(=O)N1CCC2(CC1)N=C(c1ccc(F)c(OC(F)(F)F)c1)NC2=O` [Compound 1159, 2-(4-fluoro-3-trifluoromethoxy-phenyl)-8-{(E)-2-[4-(4-hydroxy-piperidine-1-carbonyl)-2,6-dimethyl-phenyl]-ethenesulfonyl}-1,3,8-triaza-spiro[4.5]dec-1-en-4-one]: the “cAMP production activity (%)” value is given as 87%. Take `Cc1cc2ccc1CCS(=O)(=O)N1CCC3(CC1)N=C(NC3=O)c1cc(cc(C(F)(F)F)c1)OCCC=CCCCN(C)C2=O` [Compound 1406]: the “cAMP production activity (%)” value turned out to be 7.3%.
